Reference: US11078197B2, “5-membered and bicyclic heterocyclic amides as inhibitors of rock” (BRISTOL-MYERS SQUIBB COMPANY, priority 2017, dated 2021)

Each compound was assayed against ROCK2 (Homo sapiens (Human), UniProt O75116) (assay: ROCK2 assay (peptide phosphorylation, LABCHIP 3000 Reader)). Details: 5 μM ATP, 1.5 μM peptide substrate, dose-response.
Assay type: biochemical
Description: After incubation, the reaction was terminated by the addition of EDTA and the phosphorylated and non-phosphorylated peptides separated using a LABCHIP®3000 Reader (Caliper Life Sciences). […] Compounds were tested in dose-response format, and the inhibition of kinase activity was calculated at each concentration of compound. […] Representative Examples were tested in the ROCK2 assay described above and found having ROCK2 inhibitory activity.

ROCK2, sequence (O75116 whole entry, species assumed): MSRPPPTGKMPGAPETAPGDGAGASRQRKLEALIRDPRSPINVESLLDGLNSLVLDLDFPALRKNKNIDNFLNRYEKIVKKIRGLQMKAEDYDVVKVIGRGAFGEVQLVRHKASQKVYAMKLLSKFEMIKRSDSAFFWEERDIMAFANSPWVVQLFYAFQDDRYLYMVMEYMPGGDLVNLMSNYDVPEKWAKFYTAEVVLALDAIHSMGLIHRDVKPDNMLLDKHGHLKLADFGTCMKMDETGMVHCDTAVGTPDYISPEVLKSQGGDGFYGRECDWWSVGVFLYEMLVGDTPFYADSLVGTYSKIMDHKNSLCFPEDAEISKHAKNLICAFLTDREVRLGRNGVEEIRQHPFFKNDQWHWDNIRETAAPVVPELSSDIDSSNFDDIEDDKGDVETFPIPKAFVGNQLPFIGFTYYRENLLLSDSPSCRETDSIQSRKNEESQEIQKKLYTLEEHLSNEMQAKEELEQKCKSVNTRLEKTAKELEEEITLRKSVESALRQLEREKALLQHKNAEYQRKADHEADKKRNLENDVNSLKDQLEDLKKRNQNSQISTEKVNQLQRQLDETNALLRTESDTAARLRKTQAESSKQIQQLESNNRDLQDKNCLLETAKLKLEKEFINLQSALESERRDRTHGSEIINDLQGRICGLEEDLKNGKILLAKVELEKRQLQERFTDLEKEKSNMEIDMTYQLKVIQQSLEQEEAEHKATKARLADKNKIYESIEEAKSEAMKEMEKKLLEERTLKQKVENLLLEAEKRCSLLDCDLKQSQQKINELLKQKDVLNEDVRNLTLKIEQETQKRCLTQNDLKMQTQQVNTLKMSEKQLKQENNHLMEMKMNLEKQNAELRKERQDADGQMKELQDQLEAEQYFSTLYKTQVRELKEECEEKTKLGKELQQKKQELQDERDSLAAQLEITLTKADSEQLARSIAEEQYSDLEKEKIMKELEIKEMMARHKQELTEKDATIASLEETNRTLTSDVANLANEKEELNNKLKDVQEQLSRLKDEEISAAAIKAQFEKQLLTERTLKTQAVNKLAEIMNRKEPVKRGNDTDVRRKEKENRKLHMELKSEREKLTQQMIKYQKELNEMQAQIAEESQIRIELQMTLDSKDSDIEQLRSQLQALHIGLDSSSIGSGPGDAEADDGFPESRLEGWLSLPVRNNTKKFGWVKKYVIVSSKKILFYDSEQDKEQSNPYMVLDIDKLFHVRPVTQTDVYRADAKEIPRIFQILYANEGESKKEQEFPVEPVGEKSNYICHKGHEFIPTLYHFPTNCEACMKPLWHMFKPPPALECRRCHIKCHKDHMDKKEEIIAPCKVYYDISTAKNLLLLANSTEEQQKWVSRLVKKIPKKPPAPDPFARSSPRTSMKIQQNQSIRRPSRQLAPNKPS

Structure (SMILES)	IC50 [nM]
CC(C)C1NC(=O)N([C@H]2C[C@@]3(C[C@H](Oc4nc(C5CC5)sc4C(N)=O)C3)C2)C1=O (stereo partly drawn) [Example 106, 2-cyclopropyl-4-{[(aR)-6-[2,5-dioxo-4-(propan-2-yl)imidazolidin-1-yl]spiro[3.3]heptan-2-yl]oxy}-1,3-thiazole-5-carboxamide]	587
NC(=O)c1sc(C2CC2)nc1O[C@H]1C[C@]2(C1)C[C@H](N1C(=O)NC(Cc3cccnc3)C1=O)C2 (stereo partly drawn) [Example 107, 2-cyclopropyl-4-{[(aR)-6-{2,5-dioxo-4-[(pyridin-3-yl)methyl]imidazolidin-1-yl}spiro[3.3]heptan-2-yl]oxy}-1,3-thiazole-5-carboxamide]	1830
CCC1NC(=O)N([C@H]2C[C@@]3(C[C@H](Oc4nc(C5CC5)sc4C(N)=O)C3)C2)C1=O (stereo partly drawn) [Example 108, 2-cyclopropyl-4-{[(aR)-6-(4-ethyl-2,5-dioxoimidazolidin-1-yl)spiro[3.3]heptan-2-yl]oxy}-1,3-thiazole-5-carboxamide]	1870
COc1nc(O[C@H]2CC3(C[C@H](NC(=O)c4cnn(-c5ccc(C#N)cc5)c4C)C3)C2)c(C(N)=O)s1 (stereo partly drawn) [Example 112, 4-(((2S,4s,6)-6-(1-(4-cyanophenyl)-5-methyl-1H-pyrazole-4-carboxamido)spiro[3.3]heptan-2-yl)oxy)-2-methoxythiazole-5-carboxamide]	205
COc1nc(O[C@H]2C[C@@]3(C[C@H](NC(=O)c4cnn(-c5ccc(Cl)cc5)c4C)C3)C2)c(C(N)=O)s1 (stereo partly shown) [Example 113, 2-methoxy-4-{[(4s)-6-[1-(4-chlorophenyl)-5-methyl-1H-pyrazole-4-amido]spiro[3.3]heptan-2-yl]oxy}-1,3-thiazole-5-carboxamide]	53.1
COc1nc(O[C@H]2C[C@@]3(C[C@H](NC(=O)c4cnn(-c5ccc(C(F)(F)F)cn5)c4C)C3)C2)c(C(N)=O)s1 (stereo partly shown) [Example 114, 2-methoxy-4-{[(4s)-6-{5-methyl-1-[5-(trifluoromethyl)pyridin-2-yl]-1H-pyrazole-4-amido}spiro[3.3]heptan-2-yl]oxy}-1,3-thiazole-5-carboxamide]	115
COc1nc(O[C@H]2C[C@@]3(C[C@H](NC(=O)c4cnn5cc(OCC(F)F)ccc45)C3)C2)c(C(N)=O)s1 (stereo partly shown) [Example 115, 2-methoxy-4-{[(4s)-6-[6-(2,2-difluoroethoxy)pyrazolo[1,5-a]pyridine-3-amido]spiro[3.3]heptan-2-yl]oxy}-1,3-thiazole-5-carboxamide]	31.2
COc1nc(O[C@H]2C[C@@]3(C[C@H](NC(=O)c4cnn5cc(OCC(O)(C(F)(F)F)C(F)(F)F)ccc45)C3)C2)c(C(N)=O)s1 (stereo partly shown) [Example 116, 2-methoxy-4-{[(4s)-6-{6-[3,3,3-trifluoro-2-hydroxy-2-(trifluoromethyl)propoxy]pyrazolo[1,5-a]pyridine-3-amido}spiro[3.3]heptan-2-yl]oxy}-1,3-thiazole-5-carboxamide]	71.6
COc1nc(O[C@H]2C[C@@]3(C[C@H](NC(=O)c4cnn5cc(OCC(F)(F)F)ccc45)C3)C2)c(C(N)=O)s1 (stereo partly shown) [Example 117, 2-methoxy-4-{[(4s)-6-[6-(2,2,2-trifluoroethoxy)pyrazolo[1,5-a]pyridine-3-amido]spiro[3.3]heptan-2-yl]oxy}-1,3-thiazole-5-carboxamide]	58.7
Cc1c(C(=O)N[C@H]2C[C@]3(C2)C[C@H](Oc2nn4ccccc4c2C(N)=O)C3)cnn1-c1ccc(C#N)cc1 (stereo partly shown) [Example 118, 1-(4-cyanophenyl)-5-methyl-N-[(4s)-6-({3-carbamoylpyrazolo[1,5-a]pyridin-2-yl}oxy)spiro[3.3]heptan-2-yl]-1H-pyrazole-4-carboxamide]	639
Cc1c(C(=O)N[C@H]2C[C@]3(C2)C[C@H](Oc2nn4ccccc4c2C(N)=O)C3)cnn1-c1ccc(Cl)cc1 (stereo partly shown) [Example 119, 1-(4-chlorophenyl)-5-methyl-N-[(4s)-6-({3-carbamoylpyrazolo[1,5-a]pyridin-2-yl}oxy)spiro[3.3]heptan-2-yl]-1H-pyrazole-4-carboxamide]	351
Cc1c(C(=O)N[C@H]2C[C@]3(C2)C[C@H](Oc2nn4ccccc4c2C(N)=O)C3)cnn1-c1ccc(C(F)(F)F)cn1 (stereo partly shown) [Example 120, 5-methyl-N-[(4s)-6-({3-carbamoylpyrazolo[1,5-a]pyridin-2-yl}oxy)spiro[3.3]heptan-2-yl]-1-[5-(trifluoromethyl)pyridin-2-yl]-1H-pyrazole-4-carboxamide]	805
CC(C)(O)COc1ccc2c(C(=O)N[C@H]3C[C@]4(C3)C[C@H](Oc3nn5ccccc5c3C(N)=O)C4)nn(C(F)F)c2c1 (stereo partly shown) [Example 121, 1-(difluoromethyl)-6-(2-hydroxy-2-methylpropoxy)-N-[(4s)-6-({3-carbamoylpyrazolo[1,5-a]pyridin-2-yl}oxy)spiro[3.3]heptan-2-yl]-1H-indazole-3-carboxamide]	18.3
NC(=O)c1c(O[C@H]2C[C@@]3(C[C@H](NC(=O)c4cnn5cc(OCC(F)F)ccc45)C3)C2)nn2ccccc12 (stereo partly shown) [Example 122, 2-{[(4s)-6-[6-(2,2-difluoroethoxy)pyrazolo[1,5-a]pyridine-3-amido]spiro[3.3]heptan-2-yl]oxy}pyrazolo[1,5-a]pyridine-3-carboxamide]	117
NC(=O)c1c(O[C@H]2C[C@@]3(C[C@H](NC(=O)c4cnn5cc(OCC(O)(C(F)(F)F)C(F)(F)F)ccc45)C3)C2)nn2ccccc12 (stereo partly shown) [Example 123, 2-{[(4s)-6-{6-[3,3,3-trifluoro-2-hydroxy-2-(trifluoromethyl)propoxy]pyrazolo[1,5-a]pyridine-3-amido}spiro[3.3]heptan-2-yl]oxy}pyrazolo[1,5-a]pyridine-3-carboxamide]	241
COc1ccc2c(C(N)=O)c(O[C@H]3C[C@@]4(C[C@H](NC(=O)c5nn(C(F)F)c6cc(OCC(C)(C)O)ccc56)C4)C3)nn2c1 (stereo partly shown) [Example 124, 1-(difluoromethyl)-6-(2-hydroxy-2-methylpropoxy)-N-[(4s)-6-({3-carbamoyl-6-methoxypyrazolo[1,5-a]pyridin-2-yl}oxy)spiro[3.3]heptan-2-yl]-1H-indazole-3-carboxamide]	90.4
COc1ccc2c(C(N)=O)c(O[C@H]3C[C@@]4(C[C@H](NC(=O)c5cnn6cc(OCC(F)F)ccc56)C4)C3)nn2c1 (stereo partly shown) [Example 125, 6-methoxy-2-{[(4s)-6-[6-(2,2-difluoroethoxy)pyrazolo[1,5-a]pyridine-3-amido]spiro[3.3]heptan-2-yl]oxy}pyrazolo[1,5-a]pyridine-3-carboxamide]	316
Cc1ccc2c(C(N)=O)c(O[C@H]3C[C@@]4(C[C@H](NC(=O)c5nn(C(F)F)c6cc(OCC(C)(C)O)ccc56)C4)C3)nn2c1 (stereo partly shown) [Example 126, 1-(difluoromethyl)-6-(2-hydroxy-2-methylpropoxy)-N-[(4s)-6-({3-carbamoyl-6-methylpyrazolo[1,5-a]pyridin-2-yl}oxy)spiro[3.3]heptan-2-yl]-1H-indazole-3-carboxamide]	46.4
NC(=O)c1c(O[C@H]2C[C@@]3(C[C@H](NC(=O)c4cnn5cc(OCC(F)F)ccc45)C3)C2)nn2cc(F)ccc12 (stereo partly shown) [Example 127, 6-fluoro-2-{[(4s)-6-[6-(2,2-difluoroethoxy)pyrazolo[1,5-a]pyridine-3-amido]spiro[3.3]heptan-2-yl]oxy}pyrazolo[1,5-a]pyridine-3-carboxamide]	113
CC(C)(O)COc1ccc2c(C(=O)N[C@H]3C[C@]4(C3)C[C@H](Oc3nn5cc(F)ccc5c3C(N)=O)C4)nn(C(F)F)c2c1 (stereo partly shown) [Example 128, 1-(difluoromethyl)-6-(2-hydroxy-2-methylpropoxy)-N-[(4s)-6-({3-carbamoyl-6-fluoropyrazolo[1,5-a]pyridin-2-yl}oxy)spiro[3.3]heptan-2-yl]-1H-indazole-3-carboxamide]	83.2
Cc1c(C(=O)N[C@H]2C[C@]3(C2)C[C@H](Oc2nn4cc(F)ccc4c2C(N)=O)C3)cnn1-c1ccc(C#N)cc1 (stereo partly shown) [Example 129, 1-(4-cyanophenyl)-5-methyl-N-[(4s)-6-({3-carbamoyl-6-fluoropyrazolo[1,5-a]pyridin-2-yl}oxy)spiro[3.3]heptan-2-yl]-1H-pyrazole-4-carboxamide]	702
CC(C)(O)COc1ccc2c(C(=O)N[C@H]3C[C@]4(C3)C[C@H](Oc3nn5cc(C(F)(F)F)ccc5c3C(N)=O)C4)nn(C(F)F)c2c1 (stereo partly shown) [Example 130, 1-(difluoromethyl)-6-(2-hydroxy-2-methylpropoxy)-N-[(4s)-6-{[3-carbamoyl-6-(trifluoromethyl)pyrazolo[1,5-a]pyridin-2-yl]oxy}spiro[3.3]heptan-2-yl]-1H-indazole-3-carboxamide]	611
NC(=O)c1c(O[C@H]2C[C@@]3(C[C@H](NC(=O)c4cnn5cc(OCC(F)F)ccc45)C3)C2)nn2cc(C(F)(F)F)ccc12 (stereo partly shown) [Example 131, 2-{[(4s)-6-[6-(2,2-difluoroethoxy)pyrazolo[1,5-a]pyridine-3-amido]spiro[3.3]heptan-2-yl]oxy}-6-(trifluoromethyl)pyrazolo[1,5-a]pyridine-3-carboxamide]	1170
Cc1ccn2nc(O[C@H]3C[C@@]4(C[C@H](NC(=O)c5nn(C(F)F)c6cc(OCC(C)(C)O)ccc56)C4)C3)c(C(N)=O)c2c1 (stereo partly shown) [Example 132, 1-(difluroomethyl)-6-(2-hydroxy-2-methylpropoxy)-N-[(4s)-6-({3-carbamoyl-5-methylpyrazolo[1,5-a]pyridin-2-yl}oxy)spiro[3.3]heptan-2-yl]-1H-indazole-3-carboxamide]	223
Cc1cccc2c(C(N)=O)c(O[C@H]3C[C@@]4(C[C@H](NC(=O)c5nn(C(F)F)c6cc(OCC(C)(C)O)ccc56)C4)C3)nn12 (stereo partly shown) [Example 133, 1-(difluoromethyl)-6-(2-hydroxy-2-methylpropoxy)-N-[(4s)-6-({3-carbamoyl-7-methylpyrazolo[1,5-a]pyridin-2-yl}oxy)spiro[3.3]heptan-2-yl]-1H-indazole-3-carboxamide]	20.2
